Literature values, collected in article PMC6311893, “Computational prediction of plasma protein binding of cyclic peptides from small molecule experimental data using sparse modeling techniques” (BMC Bioinformatics, 2018).

System: plasma protein
Details: fraction bound to plasma protein; small molecule dataset, sheet 1-SM (Set Dte = test, Dtr = training); ref Ingle et al.; cited from earlier work

Compared with `O=C(O[C@@H]1C[C@@H]2C[C@H]3C[C@H](C1)N2CC3=O)c1c[nH]c2ccccc12` [dolasetron], `CCC(Oc1ccccc1)C(=O)NC1C(=O)N2C1SC(C)(C)C2C(=O)O` (stereo not drawn) [penicillin50] is higher in “PPB (fb)” value: 0.7 for the first, 0.86 for the second.

First: Cn1cnc([N+](=O)[O-])c1Sc1ncnc2nc[nH]c12 [azathioprine]
Second: COc1ccc(NS(=O)(=O)c2ccc(N)cc2)nn1 [sulfamethoxypyridazine]
The “PPB (fb)” value of the first is lower: 0.25 for the first, 0.75 for the second.

Compared with `CC1(C)SC2C(NC(=O)CC(N)c3cccs3)C(=O)N2C1C(=O)O` (stereo not drawn) [penicillin72], `CC(NC(C)(C)C)C(=O)c1cccc(Cl)c1` (stereo not drawn) [bupropion] is higher in “PPB (fb)” value: 0.32 for the first, 0.75 for the second.

Going from `CCN(CC)CCCN(c1ccccc1)C1Cc2ccccc2C1` [aprindine] to `CC(C)(C)NCC(O)COc1cccc2c1CCC(=O)N2` (stereo not drawn) [carteolol], the “PPB (fb)” value falls from 0.95 to 0.15.

`Cc1cccc(C)c1NC(=O)C1CCCCN1C` (stereo not drawn) [Mepivacaine] and `Cc1nc2n(c(=O)c1CCN1CCC(c3noc4cc(F)ccc34)CC1)CCCC2O` (stereo not drawn) [9-Hydroxyrisperidone] are the same in “PPB (fb)” value: 0.77 for the first, 0.77 for the second.

In the case of `CCN[C@H]1C[C@H](C)S(=O)(=O)c2sc(S(N)(=O)=O)cc21` [dorzolamide], the “PPB (fb)” value is listed as 0.3.

Same assay, conditions: fraction bound to plasma protein; small molecule dataset, sheet 1-SM, Set Dtr; ref Ingle et al.; cited from earlier work

Going from `NNC(=O)c1ccncc1` [Isoniazid] to `N[C@@H](Cc1c[nH]c2ccccc12)C(=O)O` [Tryptophan], the “PPB (fb)” value rises from 0.01 to 0.8.

Going from `CC1CCCC(C)N1CCCC(O)(c1ccccc1)c1ccccn1` (stereo not drawn) [Pirmenol] to `CNCCC=C1c2ccccc2CCc2ccccc21` [Nortriptyline], the “PPB (fb)” value rises from 0.87 to 0.91.

Going from `CO[C@@]1(NC(=O)C2SC(=C(C(N)=O)C(=O)O)S2)C(=O)N2C(C(=O)O)=C(CSc3nnnn3C)CS[C@@H]21` (stereo partly drawn) [Cefotetan] to `CO/N=C(\C(=O)N[C@@H]1C(=O)N2C(C(=O)O)=C(COC(N)=O)CS[C@H]12)c1ccco1` [Cefuroxime], the “PPB (fb)” value falls from 0.84 to 0.32.

Compared with `COc1cc2c(cc1OC)[C@@H](Cc1cc(OC)c(OC)c(OC)c1)[N+](C)(CCCOC(=O)CC/C=C/CCC(=O)OCCC[N+]1(C)CCc3cc(OC)c(OC)cc3[C@H]1Cc1cc(OC)c(OC)c(OC)c1)CC2` (stereo partly drawn) [Mivacurium], `COc1cc2c(cc1O)CCNC21CSC2c3c(OC(C)=O)c(C)c4c(c3C(COC1=O)N1C(O)C3Cc5cc(C)c(OC)c(O)c5C(C21)N3C)OCO4` (stereo not drawn) [Trabectedin (ET-743__ Yondelis)] is higher in “PPB (fb)” value: 0.3 for the first, 0.94 for the second.

Compared with `O=C(O)[C@H]1/C(=C/CO)O[C@@H]2CC(=O)N21` [Clavulanic Acid], `COc1c(N2C[C@@H]3CCCN[C@@H]3C2)c(F)cc2c(=O)c(C(=O)O)cn(C3CC3)c12` [Moxifloxacin] is higher in “PPB (fb)” value: 0.09 for the first, 0.45 for the second.

First: CN(C)CCCC1(c2ccc(F)cc2)OCc2cc(C#N)ccc21 (stereo not drawn) [Citalopram]
Second: C[C@@H](O[C@H]1OCCN(Cc2n[nH]c(=O)[nH]2)[C@H]1c1ccc(F)cc1)c1cc(C(F)(F)F)cc(C(F)(F)F)c1 [Aprepitant]
The “PPB (fb)” value of the first is lower: 0.68 for the first, 0.95 for the second.

Going from `CCCCN1CCCCC1C(=O)Nc1c(C)cccc1C` (stereo not drawn) [Bupivacaine] to `CCCCC1=NC2(CCCC2)C(=O)N1Cc1ccc(-c2ccccc2-c2nnn[nH]2)cc1` [Irbesartan], the “PPB (fb)” value falls from 0.95 to 0.9.

First: COc1c(Cl)ccc(Cl)c1C(=O)O [Dicamba]
Second: CN1CCc2cccc3c2[C@H]1Cc1ccc(O)c(O)c1-3 [Apomorphine]
The “PPB (fb)” value of the first is lower: 0.9 for the first, 0.94 for the second.

Compared with `Cc1c(C)c2c(c(C)c1O)CCC(C)(COc1ccc(CC3SC(=O)NC3=O)cc1)O2` (stereo not drawn) [troglitazone], `C[C@H]1C[C@H]2[C@@H]3CCC4=CC(=O)C=C[C@]4(C)[C@@]3(F)[C@@H](O)C[C@]2(C)[C@@]1(O)C(=O)CO` [Betamethasone] is lower in “PPB (fb)” value: 0.99 for the first, 0.66 for the second.

Going from `COc1nc(N)nc2c1ncn2[C@@H]1O[C@H](CO)[C@@H](O)[C@@H]1O` [Nelarabine] to `CC[C@H]1OC(=O)[C@H](C)[C@@H](O[C@H]2C[C@@](C)(OC)[C@@H](O)[C@H](C)O2)[C@H](C)[C@@H](O[C@@H]2O[C@H](C)C[C@H](N(C)C)[C@H]2O)[C@](C)(O)C[C@@H](C)C(=O)[C@H](C)[C@@H](O)[C@]1(C)O` [Erythromycin], the “PPB (fb)” value rises from 0.2 to 0.86.

Compared with `CC(C)(C)NCC(O)c1ccc(O)c(CO)c1` (stereo not drawn) [Albuterol (salbutamol)], `CC(Oc1ccccc1)C(=O)N[C@@H]1C(=O)N2[C@@H]1SC(C)(C)[C@@H]2C(=O)O` (stereo partly drawn) [Phenethicillin] is higher in “PPB (fb)” value: 0.09 for the first, 0.75 for the second.

Going from `CC[C@H]1OC(=O)[C@H](C)[C@@H](O[C@H]2C[C@@](C)(OC)[C@@H](O)[C@H](C)O2)[C@H](C)[C@@H](O[C@@H]2O[C@H](C)C[C@H](N(C)C)[C@H]2O)[C@](C)(O)C[C@@H](C)CN(C)[C@H](C)[C@@H](O)[C@]1(C)O` [Azithromycin] to `O=C(O)P(=O)(O)O` [Foscarnet], the “PPB (fb)” value falls from 0.23 to 0.15.

Same assay, conditions: fraction bound to plasma protein; small molecule dataset, sheet 1-SM; ref Ingle et al.; cited from earlier work

`CC1(C)SC2C(NC(=O)C(Oc3ccccc3)c3ccccc3)C(=O)N2C1C(=O)O` (stereo not drawn) [penicillin51] and `CC(Oc1cc(Cl)cc(Cl)c1)C(=O)NC1C(=O)N2C1SC(C)(C)C2C(=O)O` (stereo not drawn) [penicillin59] are the same in “PPB (fb)” value: 0.97 for the first, 0.97 for the second.

Going from `C/C=C/C[C@@H](C)C(=O)[C@H]1C(=O)N[C@@H](C(C)C)C(=O)N(C)CC(=O)N(C)[C@@H](CC(C)C)C(=O)N[C@@H](C(C)C)C(=O)N(C)[C@@H](CC(C)C)C(=O)N[C@@H](C)C(=O)N[C@H](C)C(=O)N(C)[C@@H](CC(C)C)C(=O)N(C)[C@@H](CC(C)C)C(=O)N(C)[C@@H](C(C)C)C(=O)N1C` [Valspodar] to `CC(Cc1ccccc1)NCCC(c1ccccc1)c1ccccc1` (stereo not drawn) [prenylamine], the “PPB (fb)” value falls from 0.98 to 0.97.

First: CC(C)(C)NC[C@H](O)COc1ccccc1C1CCCC1 [penbutolol]
Second: CC1(C)SC2C(NC(=O)c3ccccc3)C(=O)N2C1C(=O)O (stereo not drawn) [penicillin14]
The “PPB (fb)” value of the first is higher: 0.95 for the first, 0.87 for the second.

Compared with lanatoside-C, `Cc1ccc2ccccc2c1C(=O)NC1C(=O)N2C1SC(C)(C)C2C(=O)O` (stereo not drawn) [penicillin66] is higher in “PPB (fb)” value: 0.25 for the first, 0.82 for the second.

First: CC1(C)O[C@@H]2C[C@H]3[C@@H]4CCC5=CC(=O)C=C[C@]5(C)[C@@]4(F)[C@@H](O)C[C@]3(C)[C@]2(C(=O)CO)O1 [Triamcinolone Acetonide]
Second: COC(C(=O)NC1C(=O)N2C1SC(C)(C)C2C(=O)O)c1ccc(Cl)c(Cl)c1 (stereo not drawn) [penicillin56]
The “PPB (fb)” value of the first is lower: 0.8 for the first, 0.95 for the second.

First: N=C(N)c1ccc(OCCCCCOc2ccc(C(=N)N)cc2)cc1 [pentamidine]
Second: CO[C@]1(CC[C@@H](C)CO[C@@H]2O[C@H](CO)[C@@H](O)[C@H](O)[C@H]2O)O[C@H]2C[C@H]3[C@@H]4CC=C5C[C@@H](O[C@@H]6O[C@H](CO)[C@@H](O[C@@H]7O[C@@H](C)[C@H](O)[C@@H](O)[C@H]7O)[C@H](O)[C@H]6O[C@@H]6O[C@@H](C)[C@H](O)[C@@H](O)[C@H]6O)CC[C@]5(C)[C@H]4CC[C@]3(C)[C@H]2[C@@H]1C [methyl protodioscin]
The “PPB (fb)” value of the first is lower: 0.7 for the first, 0.84 for the second.

Compared with `CCOc1ccccc1OCCN[C@H](C)Cc1ccc(OC)c(S(N)(=O)=O)c1` [Tamsulosin], `CN1CCN(CC(=O)N2c3ccccc3C(=O)Nc3cccnc32)CC1` [pirenzepine] is lower in “PPB (fb)” value: 0.97 for the first, 0.1 for the second.

Compared with `CC(C(=O)O)c1ccc(C(=O)c2ccccc2)s1` (stereo not drawn) [tiaprofenic acid], `O=C(O)c1cc(/N=N/c2ccc(S(=O)(=O)Nc3ccccn3)cc2)ccc1O` [sulfasalazine] is lower in “PPB (fb)” value: 0.98 for the first, 0.97 for the second.

Going from `COc1cc(NCc2ccc3nc(N)nc(N)c3c2C)cc(OC)c1OC` [Trimetrexate] to `CC[C@@H](C(N)=O)N1CCCC1=O` [levetiracetam], the “PPB (fb)” value falls from 0.96 to 0.05.

Going from `CC#C[C@]1(O)CC[C@H]2[C@@H]3CCC4=CC(=O)CCC4=C3[C@@H](c3ccc(N(C)C)cc3)C[C@@]21C` [mifepristone] to `COc1cc2c(cc1OC)CN(C(=O)[C@H](C)N[C@@H](CCc1ccccc1)C(=O)O)[C@H](C(=O)O)C2` [moexiprilat], the “PPB (fb)” value falls from 0.98 to 0.5.

Compared with `CC(C)NC[C@H](O)COc1ccc(O)cc1` [prenalterol], `O=C1[C@@H]2[C@H]3CC[C@H](C3)[C@@H]2C(=O)N1CCCCN1CCN(c2ncccn2)CC1` [tandospirone] is higher in “PPB (fb)” value: 0.04 for the first, 0.3 for the second.

Going from `O=C(O)Cc1ccccc1Oc1ccc(Cl)cc1Cl` [fenclofenac] to `CC(NCCC(c1ccccc1)c1ccccc1)c1ccccc1` (stereo not drawn) [fendiline], the “PPB (fb)” value falls from 0.99 to 0.95.

Compared with `CS(=O)(=O)c1ccc([C@@H](O)[C@@H](CF)NC(=O)C(Cl)Cl)cc1` [florfenicol], `Cc1ccc(S(=O)(=O)NC(=O)N[C@H]2[C@H]3CC[C@@](C)([C@H]2O)C3(C)C)cc1` [glibornuride] is higher in “PPB (fb)” value: 0.12 for the first, 0.95 for the second.

Same assay, conditions: plasma; cited from earlier work

Compared with `CC(C)CC(N(C)C)C1(c2ccc(Cl)cc2)CCC1` (stereo not drawn) [sibutramine], `C#CCN(C)[C@H](C)Cc1ccccc1` [Selegiline] is lower in “PPB (fb)” value: 0.95 for the first, 0.9 for the second.

Compared with `CCCC(C)(COC(N)=O)COC(N)=O` [Meprobamate], `CC(=O)OC1CC(OC2C(O)CC(OC3C(O)CC(OC4CCC5(C)C(CCC6C5CCC5(C)C(C7=CC(=O)OC7)CCC65O)C4)OC3C)OC2C)OC(C)C1O` (stereo not drawn) [acetyldigitoxin] is higher in “PPB (fb)” value: 0.1 for the first, 0.8 for the second.

Going from `ClC1=C(Cl)[C@]2(Cl)[C@@H]3[C@@H]4C[C@@H]([C@H]5O[C@@H]45)[C@@H]3[C@@]1(Cl)C2(Cl)Cl` [dieldrin] to `O=C(O)c1cc(O)c(O)c(O)c1` [gallic acid], the “PPB (fb)” value falls from 0.99 to 0.32.

First: C#CC(O)(/C=C/Cl)CC (stereo not drawn) [ethchlorvynol]
Second: Oc1c(Cl)c(Cl)c(Cl)c(Cl)c1Cl [pentachlorophenol]
The “PPB (fb)” value of the first is lower: 0.6 for the first, 0.99 for the second.

Compared with `CC(=O)Oc1ccc2c3c1OC1C(OC(C)=O)C=CC4C(C2)N(C)CCC341` (stereo not drawn) [diamorphine], `CC1(C)C[C@@H]1C(=O)N/C(=C\CCCCSC[C@H](N)C(=O)O)C(=O)O` [Cilastatin] is higher in “PPB (fb)” value: 0 for the first, 0.37 for the second.

Going from `C[C@@H]1O[C@@H](O[C@H]2C[C@@H](O)[C@]3(CO)[C@H]4[C@H](O)C[C@]5(C)[C@@H](C6=CC(=O)OC6)CC[C@]5(O)[C@@H]4CC[C@]3(O)C2)[C@H](O)[C@H](O)[C@H]1O` [ouabain] to lymecycline, the “PPB (fb)” value rises from 0 to 0.45.

First: salvianolic acid B
Second: Isradipine
The “PPB (fb)” value of the first is lower: 0.75 for the first, 0.95 for the second.
